For 1 compound, inhibition results are on record in publication PMC6934184, “Selective DNA-PKcs inhibition extends the therapeutic index of localized radiotherapy and chemotherapy” (The Journal of Clinical Investigation, 2019).

In this experiment the target is T1, TBK1 (Homo sapiens, UniProt Q9UHD2).
T1 construct: purchased Thermo Fisher Scientific (Life Technologies) SelectScreen
The experiment in a line: SelectScreen Z'LYTE. It counts as biochemical. In a few lines: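 NU5455 was profiled across the SelectScreen Broad panel of kinase activity and binding assays. Z'LYTE reactions such as CSF1R ran at apparent Km ATP, while the Adapta CAMK1 assay used ATP listed as 10. Values are given as percent.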

T1 sequence (Q9UHD2 whole entry): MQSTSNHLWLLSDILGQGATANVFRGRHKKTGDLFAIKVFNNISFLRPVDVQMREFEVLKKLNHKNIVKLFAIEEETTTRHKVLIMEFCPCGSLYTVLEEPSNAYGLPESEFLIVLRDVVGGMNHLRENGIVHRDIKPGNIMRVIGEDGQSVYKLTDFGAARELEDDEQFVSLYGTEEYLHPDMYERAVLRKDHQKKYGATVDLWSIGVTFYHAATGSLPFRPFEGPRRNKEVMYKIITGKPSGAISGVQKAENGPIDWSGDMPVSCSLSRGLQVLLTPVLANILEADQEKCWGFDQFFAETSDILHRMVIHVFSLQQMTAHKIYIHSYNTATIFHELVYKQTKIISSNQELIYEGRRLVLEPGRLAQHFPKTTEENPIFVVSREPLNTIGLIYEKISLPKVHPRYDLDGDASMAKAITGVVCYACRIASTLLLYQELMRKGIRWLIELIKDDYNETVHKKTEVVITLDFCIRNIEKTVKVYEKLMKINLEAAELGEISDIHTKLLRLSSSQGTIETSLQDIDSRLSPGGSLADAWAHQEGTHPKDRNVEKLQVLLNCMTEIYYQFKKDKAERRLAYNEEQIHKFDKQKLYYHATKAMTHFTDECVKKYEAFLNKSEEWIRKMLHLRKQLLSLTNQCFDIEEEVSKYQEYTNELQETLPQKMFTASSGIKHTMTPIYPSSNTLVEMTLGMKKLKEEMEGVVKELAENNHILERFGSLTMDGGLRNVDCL

Consider `CN(C(=O)CN1CCOCC1)c1ccc2sc3c(-c4cccc5c(=O)cc(N6CC7CCC(C6)O7)oc45)cccc3c2c1` [NU5455], for which testing at 1 µM gave an inhibition of 2%.
